Earlier results as cited in patent publication US8216495B2, “Preparation method for solid dispersions” (Formac Pharmaceuticals N.V., priority 2008, dated 2012).
In brackets after ≈: the same amount, converted by molar mass. Values belong to the compound of their own block, whether it stands above or below them.

How the values were obtained:
[1] = not given; remark: listed apart in the source
[2] = weak base

Structure (SMILES): NC(=O)N1c2ccccc2C=Cc2ccccc21 [Carbamazepine, 5H-dibenz[b,f]azepine-5-carboxamide]
solubility in alcohol and acetone (alcohol and acetone): soluble
solubility in water: practically insoluble

Structure (SMILES): C#C[C@]1(O)CC[C@H]2[C@@H]3CCC4=Cc5oncc5C[C@]4(C)[C@H]3CC[C@@]21C [Danazol, 17a-Pregna-2,4-dien-20-yno[2,3-d]-isoxazol-17-ol]
half-life ([1]; danazol administered orally): 4 to 5 h
increase in plasma concentration on doubling the dose ([1]; danazol administered orally): 30-40%
time of peak concentrations ([1]; danazol administered orally): ≤ 2 h

Structure (SMILES): CCC(C)n1ncn(-c2ccc(N3CCN(c4ccc(OCC5COC(Cn6cncn6)(c6ccc(Cl)cc6Cl)O5)cc4)CC3)cc2)c1=O (stereo not drawn) [Itraconazole]
aqueous solubility (pH=1): 4 µg/mL (≈ 5.67 µM)
pKa [2]: 4.0

Results, then the compound that gave them:

solubility in ethanol (ethanol): freely soluble
solubility in methanol and chloroform (methanol and chloroform): very soluble
solubility in water: practically insoluble
absolute bioavailability ([1]; 5 mg dose taken twice a day, oral): approximately 17%
Structure (SMILES): C=CC[C@@H]1/C=C(\C)C[C@H](C)C[C@H](OC)[C@H]2O[C@@](O)(C(=O)C(=O)N3CCCC[C@H]3C(=O)O[C@H](/C(C)=C/[C@@H]3CC[C@@H](O)[C@H](OC)C3)[C@H](C)[C@@H](O)CC1=O)[C@H](C)C[C@@H]2OC [Tacrolimus]

solubility in water: insoluble
Structure (SMILES): CC(=O)O[C@H]1C(=O)[C@@]2(C)[C@H]([C@H](OC(=O)c3ccccc3)[C@]3(O)C[C@H](OC(=O)[C@H](O)[C@@H](NC(=O)c4ccccc4)c4ccccc4)C(C)=C1C3(C)C)[C@]1(OC(C)=O)CO[C@@H]1C[C@@H]2O [Paclitaxel]
